In experiment [1] the target is CDK2/Cyclin E1 (Homo sapiens, UniProt P24941). Kind of experiment: CDK2/Cyclin E1 Biochemical Assay (TR-FRET), 0.060 mM ATP. Particulars: 0.15 μM Rb (Ser780)-biotin substrate, pH7.0, 60 min preincubation, 120 min reaction, room temperature. In a few lines: (§1)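 Inhibitor concentrations up to 10 μM were preincubated with each cyclin–kinase complex for 60 minutes before ATP and biotinylated Rb (Ser780) substrate (0.15 μM) were added. After 120 minutes at room temperature, phosphorylation was quantified by HTRF and IC50 values were fitted with a four-parameter logistic equation.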
On the technique in general: In TR-FRET formats the signal depends on donor and acceptor labels being close together.

Experiment [2] concerns the target CDK1/Cyclin B1 (Homo sapiens, UniProt P06493). Kind of experiment: CDK1/Cyclin B1 Biochemical Assay (TR-FRET), 0.015 mM ATP. Particulars: 0.15 μM Rb (Ser780)-biotin substrate, pH7.0, 60 min preincubation, 120 min reaction, room temperature. In a few lines: as §1

pIC50: −log10 of the molar value.

Sequence of CDK1/Cyclin B1 (P06493 whole entry): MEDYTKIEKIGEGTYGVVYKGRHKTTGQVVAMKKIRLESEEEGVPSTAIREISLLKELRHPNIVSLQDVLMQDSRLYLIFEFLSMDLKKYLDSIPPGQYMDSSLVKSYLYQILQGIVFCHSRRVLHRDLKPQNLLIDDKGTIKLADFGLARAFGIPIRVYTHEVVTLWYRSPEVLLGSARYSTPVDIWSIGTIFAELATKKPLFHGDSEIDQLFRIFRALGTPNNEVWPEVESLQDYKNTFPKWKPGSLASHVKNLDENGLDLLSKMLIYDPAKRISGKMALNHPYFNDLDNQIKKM
Sequence of CDK1/Cyclin B1 (P14635 whole entry partner): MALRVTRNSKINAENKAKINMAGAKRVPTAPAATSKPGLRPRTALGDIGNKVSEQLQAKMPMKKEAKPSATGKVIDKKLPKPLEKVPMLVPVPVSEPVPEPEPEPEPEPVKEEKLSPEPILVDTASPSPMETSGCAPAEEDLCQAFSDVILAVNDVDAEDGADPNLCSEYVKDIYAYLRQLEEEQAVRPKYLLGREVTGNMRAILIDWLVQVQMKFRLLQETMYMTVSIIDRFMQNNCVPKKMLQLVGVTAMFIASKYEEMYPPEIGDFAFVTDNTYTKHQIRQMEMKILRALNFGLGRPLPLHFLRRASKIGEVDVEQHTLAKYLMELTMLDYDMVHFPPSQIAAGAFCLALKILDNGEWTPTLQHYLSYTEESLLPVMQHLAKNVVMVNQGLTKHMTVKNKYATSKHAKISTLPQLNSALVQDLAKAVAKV

Turning to `CC1(NC(=O)O[C@H]2CC[C@@H](c3cc(Nc4cc5c(cc4F)N(CCO)S(=O)(=O)C5)n[nH]3)C2)CC1` (relative stereo) [Example 299, cis-3-(3-((6-fluoro-1-(2-hydroxyethyl)-2,2-dioxido-1,3-dihydrobenzo[c]isothiazol-5-yl)amino)-1H-pyrazol-5-yl)cyclopentyl(1-methylcyclopropyl)carbamate], the figures for the pIC50 in experiment [1] and in experiment [2] were 8.05 and 6.62, respectively.
`CC(C)NC(=O)O[C@H]1CC[C@@H](c2cc(Nc3ccc4c(c3F)CN(C(C)C3COC3)S4(=O)=O)n[nH]2)C1` (relative stereo) [Example 104, cis-3-(3-((4-fluoro-2-(1-(oxetan-3-yl)ethyl)-1,1-dioxido-2,3-dihydrobenzo[d]isothiazol-5-yl)amino)-1H-pyrazol-5-yl)cyclopentyl isopropylcarbamate]: the pIC50 – broadly, the negative decadic logarithm of the IC50, by convention in mol/L – was 8.24 in experiment [1] and 6.61 in experiment [2].
For `CC(C)NC(=O)O[C@H]1CC[C@@H](c2cc(Nc3ccc4c(c3)C(C)NS4(=O)=O)n[nH]2)C1` (single isomer, unassigned) [Example 321c, cis-3-(3-((3-methyl-1,1-dioxido-2,3-dihydrobenzo[d]isothiazol-5-yl)amino)-1H-pyrazol-5-yl)cyclopentyl isopropylcarbamate] the same measures were 8.89 and 7.59.
For `CC(C)NC(=O)O[C@H]1CC[C@@H](c2cc(Nc3ccc4c(c3F)CN(C)S4(=O)=O)n[nH]2)C1` (single isomer, unassigned) [Example 121b, cis-3-(3-((4-fluoro-2-methyl-1,1-dioxido-2,3-dihydrobenzo[d]isothiazol-5-yl)amino)-1H-pyrazol-5-yl)cyclopentyl isopropylcarbamate], the values for the pIC50 in experiment [1] and in experiment [2] were 8.48 and 6.89, respectively.
Consider `CN1Cc2c(ccc(Nc3cc([C@@H]4CC[C@H](OC(=O)NC5(C)CC5)C4)[nH]n3)c2F)S1(=O)=O` (relative stereo) [Example 124, cis-3-(3-((4-fluoro-2-methyl-1,1-dioxido-2,3-dihydrobenzo[d]isothiazol-5-yl)amino)-1H-pyrazol-5-yl)cyclopentyl(1-methylcyclopropyl)carbamate], for which the pIC50 was 8.80 in experiment [1] and 6.92 in experiment [2].
`CC(C)NC(=O)O[C@H]1CC[C@@H](c2cc(Nc3ccc4c(c3F)CN(C3COC3)S4(=O)=O)n[nH]2)C1` (single isomer, unassigned) [Example 133a, cis-3-(3-((4-fluoro-2-(oxetan-3-yl)-1,1-dioxido-2,3-dihydrobenzo[d]isothiazol-5-yl)amino)-1H-pyrazol-5-yl)cyclopentyl isopropylcarbamate]: the pIC50 is 7.62 in experiment [1] and 5.97 in experiment [2].
In the case of `CC(C)NC(=O)O[C@H]1CC[C@@H](c2cc(Nc3cc(F)c4c(c3)CS(=O)(=O)N4C)n[nH]2)C1` (relative stereo) [Example 280, cis-3-(3-((7-fluoro-1-methyl-2,2-dioxido-1,3-dihydrobenzo[c]isothiazol-5-yl)amino)-1H-pyrazol-5-yl)cyclopentyl isopropylcarbamate], the pIC50 was 8.00 in experiment [1] and 6.83 in experiment [2].
For `CC(C)NC(=O)O[C@@H]1CC[C@H](c2cc(Nc3ccc4c(c3)CS(=O)(=O)N4C)n[nH]2)C1` (single isomer, unassigned) [Example 220a] the same measures were 8.59 and 7.25.
Regarding `O=C(NCCC(F)(F)F)O[C@@H]1CC[C@H](c2cc(Nc3ccc4c(c3)CS(=O)(=O)N4)n[nH]2)C1` (relative stereo) [Example 198, cis-3-(3-((2,2-dioxido-1,3-dihydrobenzo[c]isothiazol-5-yl)amino)-1H-pyrazol-5-yl)cyclopentyl(3,3,3-trifluoropropyl)carbamate], the pIC50 was 7.74 in experiment [1] and 7.12 in experiment [2].
In the case of `CC(C)NC(=O)O[C@H]1CC[C@@H](c2cc(Nc3ccc4c(c3F)CN(C[C@@H](N)C(C)(C)C)S4(=O)=O)n[nH]2)C1` (relative stereo) [Example 98, cis-3-(3-((2-((S)-2-amino-3,3-dimethylbutyl)-4-fluoro-1,1-dioxido-2,3-dihydrobenzo[d]isothiazol-5-yl)amino)-1H-pyrazol-5-yl)cyclopentyl isopropylcarbamate], the pIC50 in experiment [1] was 7.70; in experiment [2], 5.72.
Take `CC(C)NC(=O)O[C@H]1CC[C@@H](c2cc(Nc3ccc4c(c3)C(C)(C)S(=O)(=O)N4)n[nH]2)C1` (relative stereo) [Example 194, cis-3-(3-((3,3-dimethyl-2,2-dioxido-1,3-dihydrobenzo[c]isothiazol-5-yl)amino)-1H-pyrazol-5-yl)cyclopentyl isopropylcarbamate]: the pIC50 was 8.43 in experiment [1] and 7.07 in experiment [2].
In the case of `O=C(NC1CCC1)O[C@H]1CC[C@@H](c2cc(Nc3ccc4c(c3F)CNS4(=O)=O)n[nH]2)C1` (relative stereo) [Example 157, cis-3-(3-((4-fluoro-1,1-dioxido-2,3-dihydrobenzo[d]isothiazol-5-yl)amino)-1H-pyrazol-5-yl)cyclopentyl cyclobutylcarbamate], the values for the pIC50 in experiment [1] and in experiment [2] were 7.82 and 6.62, respectively.
Consider `CC[C@H](C)NC(=O)O[C@H]1CC[C@@H](c2cc(Nc3ccc4c(c3F)CS(=O)(=O)N4C3CC3)n[nH]2)C1` (relative stereo) [Example 278, cis-3-(3-((1-cyclopropyl-4-fluoro-2,2-dioxido-1,3-dihydrobenzo[c]isothiazol-5-yl)amino)-1H-pyrazol-5-yl)cyclopentyl((S)-sec-butyl)carbamate], for which the results for the pIC50 in experiment [1] and in experiment [2] were 8.89 and 7.25, respectively.
`COc1c(Nc2cc([C@@H]3CC[C@H](OC(=O)NC(C)C)C3)[nH]n2)ccc2c1S(=O)(=O)NC2(C)C` (relative stereo) [Example 181, cis-3-(3-((7-methoxy-3,3-dimethyl-1,1-dioxido-2,3-dihydrobenzo[d]isothiazol-6-yl)amino)-1H-pyrazol-5-yl)cyclopentyl isopropylcarbamate]: the pIC50 in experiment [1] is 7.24; in experiment [2], 5.90.
As to `CC(C)NC(=O)O[C@H]1CC[C@@H](c2cc(Nc3ccc4c(c3CO)CNS4(=O)=O)n[nH]2)C1` (relative stereo) [Example 345, cis-3-(3-((4-(hydroxymethyl)-1,1-dioxido-2,3-dihydrobenzo[d]isothiazol-5-yl)amino)-1H-pyrazol-5-yl)cyclopentyl isopropylcarbamate], the pIC50 is 7.19 in experiment [1] and 5.76 in experiment [2].
For the compound `CC(C)NC(=O)O[C@H]1CC[C@@H](c2cc(Nc3cc4c(cc3F)N(C3CC3)S(=O)(=O)C4)n[nH]2)C1` (relative stereo) [Example 302, cis-3-(3-((1-cyclopropyl-6-fluoro-2,2-dioxido-1,3-dihydrobenzo[c]isothiazol-5-yl)amino)-1H-pyrazol-5-yl)cyclopentyl isopropylcarbamate], the results for the pIC50 in experiment [1] and in experiment [2] were 7.68 and 6.16, respectively.
With `CC[C@H](C)NC(=O)O[C@H]1CC[C@@H](c2cc(Nc3ccc4c(c3)CS(=O)(=O)N4)n[nH]2)C1` (single isomer, unassigned) [Example 323b], the pIC50 in experiment [1] was 8.21; in experiment [2], 7.77.
With `CCCNC(=O)O[C@H]1CC[C@@H](c2cc(Nc3ccc4c(c3F)CS(=O)(=O)N4CCO)n[nH]2)C1` (single isomer, unassigned) [Example 272a, cis-3-(3-((4-fluoro-1-(2-hydroxyethyl)-2,2-dioxido-1,3-dihydrobenzo[c]isothiazol-5-yl)amino)-1H-pyrazol-5-yl)cyclopentyl propylcarbamate], the negative-log IC50 (pIC50) in experiment [1] is 7.81; in experiment [2] it was 6.84.
On to `COCC(C)(C)NC(=O)O[C@H]1CC[C@@H](c2cc(Nc3ccc4c(c3F)CN(C)S4(=O)=O)n[nH]2)C1` (relative stereo) [Example 379, cis-3-(3-((4-fluoro-2-methyl-1,1-dioxido-2,3-dihydrobenzo[d]isothiazol-5-yl)amino)-1H-pyrazol-5-yl)cyclopentyl(1-methoxy-2-methylpropan-2-yl)carbamate], for which the results for the pIC50 in experiment [1] and in experiment [2] were 8.35 and 6.64, respectively.
For `O=C(NC1(CO)CC1)O[C@H]1CC[C@@H](c2cc(Nc3ccc4c(c3F)CNS4(=O)=O)n[nH]2)C1` (relative stereo) [Example 333, cis-3-(3-((4-fluoro-1,1-dioxido-2,3-dihydrobenzo[d]isothiazol-5-yl)amino)-1H-pyrazol-5-yl)cyclopentyl(1-(hydroxymethyl)cyclopropyl)carbamate], the negative logarithm of the IC50 (pIC50) was 8.00 in experiment [1] and 6.40 in experiment [2].
Regarding `CC1(NC(=O)O[C@H]2CC[C@@H](c3cc(Nc4ccc5c(c4F)CNS5(=O)=O)n[nH]3)C2)CCOC1` (single isomer, unassigned) [Example 162b, cis-3-(3-((4-fluoro-1,1-dioxido-2,3-dihydrobenzo[d]isothiazol-5-yl)amino)-1H-pyrazol-5-yl)cyclopentyl(3-methyltetrahydrofuran-3-yl)carbamate], the negative-log IC50 (pIC50) in experiment [1] was 8.96; in experiment [2], 6.73.
Take `CC(C)NC(=O)O[C@H]1CC[C@@H](c2cc(Nc3ccc4c(c3F)C(CCO)S(=O)(=O)N4CCO)n[nH]2)C1` (relative stereo) [Example 253, cis-3-(3-((4-fluoro-1,3-bis(2-hydroxyethyl)-2,2-dioxido-1,3-dihydrobenzo[c]isothiazol-5-yl)amino)-1H-pyrazol-5-yl)cyclopentyl isopropylcarbamate]: the results for the pIC50 in experiment [1] and in experiment [2] were 8.37 and 7.02, respectively.
For `CC1(NC(=O)O[C@H]2CC[C@@H](c3cc(Nc4ccc5c(c4Cl)CNS5(=O)=O)n[nH]3)C2)CC1` (racemic) [Example 40, cis-3-(3-((4-chloro-1,1-dioxido-2,3-dihydrobenzo[d]isothiazol-5-yl)amino)-1H-pyrazol-5-yl)cyclopentyl(1-methylcyclopropyl)carbamate] the same measures were 8.64 and 6.81.

For the origin of these results see US20260297080A1, “BICYCLIC COMPOUNDS AS CDK INHIBITORS” (BeOne Medicines I GmbH, priority 2022, published 2026).
